Ten compounds from patent US20120178124A1, “STEROL SIDE CHAIN-CLEAVING ENZYME PROTEIN AND USE THEREOF” (MITSUBISHI CHEMICAL CORPORATION, priority 2009, published 2012) can be followed below.

Each structure is given as a SMILES string. Read-outs that look alike come from different tables or passages of the source.

One data set has as its system CYPSS204A. Put plainly: Conversion reaction of substrates by Escherichia coli expression strain BP215. It is filed as cell-based, Sphingomonas subterranea NBRC 16086. The method, then: The temperature conditions applied during the PCR were 95° C./5 min, 30 cycles of (98° C./30 sec, 60° C./30 sec, and 68° C./2 min), and 68° C./10 min.
Analysis conditions: Using Chromolith speed rod RP18e (50×4.6 mm) column, 50%→100% CH3CN gradient (0 to 3 min) and 100% CH3CN (3 to 8 min) were used as a mobile phase, and detection was carried out at a flow rate of 2 ml/min using CAD™ (Charged Aerosol Detection) and MS.

The target of the next data set is T1, CYP11A (Homo sapiens, UniProt P05108).
T1 construct: A 1.45-kb CYP11A1 gene fragment amplified as a result of the above-described reaction; expressed in transfected cells; host or cells: Escherichia coli BL21(DE3), plasmid pCYP11A-ARX (strain BL21CYP11)
T1 sequence (P05108 40-521): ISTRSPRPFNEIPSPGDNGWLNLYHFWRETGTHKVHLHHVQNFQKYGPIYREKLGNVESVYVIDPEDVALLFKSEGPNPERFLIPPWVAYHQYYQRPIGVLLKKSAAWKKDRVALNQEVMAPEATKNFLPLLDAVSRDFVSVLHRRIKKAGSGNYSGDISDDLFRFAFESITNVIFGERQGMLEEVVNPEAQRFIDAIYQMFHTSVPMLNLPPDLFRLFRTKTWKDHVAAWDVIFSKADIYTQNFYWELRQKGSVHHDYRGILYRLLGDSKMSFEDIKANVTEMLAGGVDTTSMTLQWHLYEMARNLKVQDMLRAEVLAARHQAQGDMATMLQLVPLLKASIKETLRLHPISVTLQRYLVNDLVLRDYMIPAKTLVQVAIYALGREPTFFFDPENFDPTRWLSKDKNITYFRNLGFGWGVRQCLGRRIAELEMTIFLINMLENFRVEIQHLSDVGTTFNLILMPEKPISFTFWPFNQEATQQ
The data set can be described thus: Conversion reaction of substrates by CYP11A-expressing Escherichia coli. The class given is cell-based. Conditions: for accumulated amount of pregnenolone / added substrate remained: same reaction as Example 6; for Conversion rate: same reaction as Example 6 (28° C., 5 hours). The method, then: (§1) The Escherichia coli expression strain BP215 was inoculated into 2 ml of an M9 mix medium (Na2HPO4: 0.68%, KH2PO4: 0.3%, NaCl: 0.05%, NH4C;: 0.01%, Casamino acid: 1%, D-Glucose: 0.4%, CaCl2: 0.1 mM, MgCl2: 1 mM, Thiamine: 0.002%, FeSO4: 0.1 mM, Carbenicillin: 0.005%), and it was then subjected to shaking culture at 30° C. for 17 hours, so as to obtain pre-culture solution. 0.25 ml of this pre-culture solution was inoculated into 25 ml of the main culture medium (Na2HPO4: 0.68%, KH2PO4: 0.3%, NaCl: 0.05%, NH4Cl: 0.01%, Casamino acid: 1%, CaCl2: 0.1 mM, MgCl2: 1 mM, Thiamine: 0.002%, FeSO4: 0.1 mM, Carbenicillin: 0.005%, Overnight Express™ solution: 7%, 5-Aminolevlic acid: 0.008%) using Overnight Express™ Autoinduction System (Novagen Cat. No. 71300-4), and it was then subjected to shaking culture at 25° C. for 24 hours. 5 ml of the obtained main culture solution was centrifuged (3500 rpm, 10 minutes) to obtain cell mass, and 1 ml of CV2 buffer (50 mM (pH) potassium phosphate buffer containing glycerol: 2%, carbenicillin: 0.005%, and isopropyl β-D-1-thiogalactopyranoside: 0.1 mM) was added to the obtained cell mass. Thereafter, 0.01 ml of the methanol solution of 1% 4-cholesten-3-one and 0.02 ml of an aqueous solution of 25% methyl-β-cyclodextrin were added to the mixed solution, and the obtained mixture was then shaken at 28° C. for 5 hours for the reaction. After completion of the reaction, 4 ml of methanol was added to the reaction solution, and they were then fully mixed. The obtained mixture was centrifuged, and the upper layer was then analyzed by HPLC.
A commercially available human testis cDNA (Origene Technologies, Inc.) was used as a template, and a CYP11A1 gene was amplified by PCR using a primer CYP11A-1F (SEQ ID NO: 19) and a primer CYP11A-2R (SEQ ID NO: 20), and also using KOD plus polymerase (TOYOBO Co., Ltd.). The temperature conditions applied during the PCR were 94° C./3 min, 30 cycles of (94° C./30 sec, 55° C./60 sec, and 72° C./90sec), and 72° C./5 min.
A 1.45-kb CYP11A1 gene fragment amplified as a result of the above-described reaction was purified using QIAquick PCR purification Kit (manufactured by QIAGEN), and it was then digested with Nde I and Spe I. Thereafter, the digest was ligated to Escherichia coli expression vector pT7NS-camAB, using T4 DNA ligase, and Escherichia coli DH5α was then transformed with the obtained expression vector, so as to construct a plasmid pCYP11A-camAB. Subsequently, using T4 DNA ligase, the previously prepared bovine-derived adrenodoxin reductase protein-adrenodoxin gene (adr-adx) fragment was inserted into and ligated to each of the Spe I and Bam HI sites of the above-described plasmid, and Escherichia coli DH5a was then transformed with the obtained plasmid, so as to construct plasmid pCYP11A-ARX. Thereafter, Escherichia coli BL21(DE3) was transformed with the thus constructed plasmid, and the obtained cell strain was named as BL21CYP11. The used adx-adr fragment was amplified by PCR with a plasmid pKARX (Sawada et. al. Eur. J. Biochem. 265, 950-956,1999) as a template, using primer bAdxR-1F (SEQ ID NO: 21) and primer bAdx-2R (SEQ ID NO: 22), and also using KOD plus polymerase (manufactured by TOYOBO Co., Ltd.). The temperature condition applied during the PCR were 94° C./3 min, 25 cycles of (94° C./30 sec, 60° C./30 sec, and 72° C./120sec), and 72° C./5 min.
Each substrate was subjected to the same reaction as that of Example 6, separately, and the reaction solution was then subjected to liquid separation using 1 ml of ethyl acetate. The reaction product and the substrate were extracted, and were then analyzed by HPLC.

Another data set concerns CYP204A1. The following applies: for accumulated amount of pregnenolone / added substrate remained: strain BP172, same reaction as Example 6; for Conversion rate: strain BP172, same reaction as Example 6 (28° C., 5 hours). Here is the method:
Novosphingobium aromaticivorans (ATCC 700278) was inoculated into an L medium, and it was then cultured at 30° C. for 2 days. Thereafter, genomic DNA was extracted from the cell mass obtained in the same manner as that of Example 1. A fragment comprising a CYPSS204A1 gene and a ferredoxin gene located downstream thereof was amplified from the above-described genomic DNA by using a primer CYP-5F (SEQ ID NO: 9) and a primer CYP-6R (SEQ ID NO: 10) and also using La Taq polymerase (manufactured by Takara Bio INC.). The temperature conditions applied during this operation were 94° C./3 min, 30 cycles of (98° C./20 sec, 63° C./30 sec, and 68° C./2 min), and 72° C./5 min.
Escherichia coli BL21(DE3) was transformed with this plasmid, and the obtained cell strain was named as BP172.
as §1
As substrates, 4-cholesten-3-one, cholesterol, 7-dehydrocholesterol, ergosterol, 13-sitosterol, stigmasterol, campesterol, desmosterol, (20S)-20-hydroxycholest-4-en-3-one, (22R)-22-hydroxycholest-4-en-3-one, (20R,22R)-20,22-dihydroxycholest-4-en-3-one, and (20R,22S)-20,22-dihydroxycholest-4-en-3-one were used. Each substrate was subjected to the same reaction as that of Example 6, separately, and the generated product was then analyzed by HPLC.

The mark [1] stands for this setting: strain BP215, 28° C., 5 hours, to progesterone, pregnenolone or 7-dehydropregnenolone.

Consider `CC(C)CC[C@@H](O)[C@@H](C)[C@H]1CC[C@H]2[C@@H]3CC=C4C[C@@H](O)CC[C@]4(C)[C@H]3CC[C@]12C` [(22R)-22-hydroxy-cholesterol], for which the “accumulated amount of pregnenolone” value with CYPSS204A (strain BP215, 28° C., 5 hours) is recorded as 80.0 mg/L; on CYP11A, 28.0 mg/L; with CYP204A1, 69.5 mg/L. Also, the added substrate remained in the data set with CYPSS204A (strain BP215, 28° C., 5 hours) is listed as 14.8%; on CYP11A it was 78.6%; in the data set on CYP204A1, 42.8%. Further, the Conversion rate with CYPSS204A (setting [1]) came to 80%; at CYP11A, 28.0%; in the data set with CYP204A1, 69.5%.
For the compound `CC(C)CCC[C@](C)(O)[C@H]1CC[C@H]2[C@@H]3CCC4=CC(=O)CC[C@]4(C)[C@H]3CC[C@@]21C` [(20S)-20-hydroxycholest-4-en-3-one], the added substrate remained in the data set with CYPSS204A (strain BP215, 28° C., 5 hours) amounted to 4.8%; at CYP11A, 100%. The Conversion rate is given as 41.0% in the data set with CYPSS204A (setting [1]); 41% with CYPSS204A (strain BP215, 28° C., 5 hours, to progesterone, pregnenolone or 7-dehydropregnenolone, listed as 20-OH); 0% on CYP11A; 63.9% with CYP204A1.
As for `CC(C)CC[C@H](O)[C@@H](C)[C@H]1CC[C@H]2[C@@H]3CC=C4C[C@@H](O)CC[C@]4(C)[C@H]3CC[C@]12C` [(22S)-22-hydroxy-cholesterol], the “accumulated amount of pregnenolone” value in the data set on CYPSS204A (strain BP215, 28° C., 5 hours) worked out at 37.5 mg/L; at CYP11A, 6.1 mg/L; in the data set on CYP204A1 it was 12.9 mg/L. The added substrate remained turned out to be 23.5% in the data set on CYPSS204A (strain BP215, 28° C., 5 hours); 92.6% at CYP11A; 60.1% in the data set on CYP204A1. The Conversion rate with CYPSS204A (setting [1]) amounted to 37.5%; at CYP11A, 6.1%; with CYP204A1 it was 12.9%.
On to `CC(C)CC[C@@H](O)[C@](C)(O)[C@H]1CC[C@H]2[C@@H]3CCC4=CC(=O)CC[C@]4(C)[C@H]3CC[C@]12C` [(20R,22R)-20,22-dihydroxycholest-4-en-3-one], for which the added substrate remained with CYPSS204A (strain BP215, 28° C., 5 hours) turned out to be 0.6%; at CYP11A, 95%. In addition, the Conversion rate in the data set with CYPSS204A (setting [1]) was found to be 38.1%; on CYP11A it was 4.3%; in the data set on CYP204A1 it was 61.3%.
`CC(C)CCC[C@@H](C)[C@H]1CC[C@H]2C3=CC=C4C[C@@H](O)CC[C@]4(C)[C@H]3CC[C@]12C` [7-dehydrocholesterol]: the “accumulated amount of side-chain cleavage product” value in the data set on CYPSS204A (strain BP215, 28° C., 5 hours) came to 34.3 mg/L. Moreover, the added substrate remained in the data set with CYPSS204A (strain BP215, 28° C., 5 hours) was 54%; at CYP11A, 99.2%. For the same compound, the Conversion rate in the data set with CYPSS204A (setting [1]) is 34.3%; at CYP11A, 0.7%; in the data set with CYP204A1, 28.5%.
Take `CC(C)CCC[C@@H](C)[C@H]1CC[C@H]2[C@@H]3CC=C4C[C@@H](O)CC[C@]4(C)[C@H]3CC[C@]12C` [cholesterol]: in the data set on CYPSS204A (strain BP215, 28° C., 5 hours), the “accumulated amount of side-chain cleavage product” value came out at 68.2 mg/L. For the same compound, the added substrate remained in the data set on CYPSS204A (strain BP215, 28° C., 5 hours) stood at 3.7%; on CYP11A, 99%. In addition, the Conversion rate was found to be 68.2% in the data set on CYPSS204A (setting [1]), 2.6% on CYP11A and 71.2% in the data set with CYP204A1.
`CC(C)=CCC[C@@H](C)[C@H]1CC[C@@]2(C)C3=C(CC[C@]12C)[C@@]1(C)CC[C@H](O)C(C)(C)[C@@H]1CC3` [Lano, lanosterol]: the Conversion rate with CYPSS204A (setting [1]), at CYP11A and with CYP204A1 was 0% each time.
For `CC(C)[C@H](C)CC[C@@H](C)[C@H]1CC[C@H]2[C@@H]3CC=C4C[C@@H](O)CC[C@]4(C)[C@H]3CC[C@]12C` [campesterol], in the data set with CYPSS204A (strain BP215, 28° C., 5 hours), the “accumulated amount of side-chain cleavage product” value worked out at 27.9 mg/L. Further, the added substrate remained is given as 25.5% in the data set with CYPSS204A (strain BP215, 28° C., 5 hours) and 99.1% at CYP11A. In addition, the Conversion rate with CYPSS204A (setting [1]) was 27.9%; on CYP11A, 1.0%; at CYP11A (listed as Cam), 1%; in the data set on CYP204A1, 31.3%.
The compound `CC(C)[C@@H](C)/C=C/[C@@H](C)[C@H]1CC[C@H]2C3=CC=C4C[C@@H](O)CC[C@]4(C)[C@H]3CC[C@]12C` [ergosterol] registered a Conversion rate in the data set with CYPSS204A of 2.8%. In the data set with CYPSS204A (strain BP215, 28° C., 5 hours), the “accumulated amount of side-chain cleavage product” value stood at 2.8 mg/L. At CYP11A, this compound came in with an added substrate remained of 100% and a Conversion rate of 0%.
For the compound `CC(C)=CCC[C@@H](C)[C@H]1CC[C@H]2[C@@H]3CC=C4C[C@@H](O)CC[C@]4(C)[C@H]3CC[C@]12C` [desmosterol], the “accumulated amount of side-chain cleavage product” value in the data set on CYPSS204A (strain BP215, 28° C., 5 hours) was found to be 71.7 mg/L. Besides, the added substrate remained in the data set with CYPSS204A (strain BP215, 28° C., 5 hours) was 21.3%; on CYP11A, 99.6%. For the same compound, the Conversion rate in the data set on CYPSS204A (setting [1]) is listed as 71.7%; on CYP11A, 1.2%; in the data set with CYP204A1 it was 66.1%.
